Reference: ChEMBL document CHEMBL1201862, “PubChem BioAssay data set” (2004)
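A five-concentration, 48-hour dose response in 96-well plates underlies each endpoint, interpolated linearly between surrounding concentrations. GI50 is the concentration that inhibits growth by half.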 Activity calls are given as the source filed them. No stated cut-off is given here; in the data, active = GI50 up to about 1.1 µM and inactive = higher.

Legend:
Experiment in all cases: NCI anticancer screen, dose series, 48 h
SK-MEL-5 = system: SK-MEL-5
A549 = system: A549
SK-OV-3 = system: SK-OV-3
EKVX = system: EKVX
KM-20L2 = system: KM-20L2
RXF 393 = system: RXF 393
HT-29 = system: HT-29
HCT-15 = system: HCT-15
IGROV-1 = system: IGROV-1
ACHN = system: ACHN
U-251 = system: U-251
SN12C = system: SN12C
NCI-H23 = system: NCI-H23
SF-295 = system: SF-295
SNB-78 = system: SNB-78
NCI-H460 = system: NCI-H460
LXFL 529 = system: LXFL 529
OVCAR-5 = system: OVCAR-5
MOLT-4 = system: MOLT-4
SF-539 = system: SF-539
UACC-257 = system: UACC-257
CAKI-1 = system: CAKI-1
SK-MEL-2 = system: SK-MEL-2
UACC-62 = system: UACC-62
COLO 205 = system: COLO 205
HOP-18 = system: HOP-18
OVCAR-4 = system: OVCAR-4
TK-10 = system: TK-10
SNB-75 = system: SNB-75
M19-MEL = system: M19-MEL
SF-268 = system: SF-268
OVCAR-3 = system: OVCAR-3
SW-620 = system: SW-620
CCRF-CEM = system: CCRF-CEM
M14 = system: M14
SK-MEL-28 = system: SK-MEL-28
HOP-62 = system: HOP-62
DMS-114 = system: DMS-114
DMS-273 = system: DMS-273
K562 = system: K562
HCC 2998 = system: HCC 2998
OVCAR-8 = system: OVCAR-8
LOX IMVI = system: LOX IMVI
KM12 = system: KM12
XF498 = system: XF498
A498 = system: A498
DLD-1 = system: DLD-1
RPMI-8226 = system: RPMI-8226
SNB-19 = system: SNB-19
786-0 = system: 786-0
HCT-116 = system: HCT-116
Malme-3M = system: Malme-3M
HL-60 = system: HL-60
NCI-H226 = system: NCI-H226
HOP-92 = system: HOP-92
UO-31 = system: UO-31
NCI-H522 = system: NCI-H522
NCI/ADR-RES = system: NCI/ADR-RES
MCF7 = system: MCF7

In the case of `CCOP(=O)(OCC)C1C(=O)O[C@H]2CCCC[C@@H]12` (stereo partly specified), the GI50 (SK-MEL-5) is reported as > 100 µM (inactive), the GI50 (A549) is reported as > 100 µM (inactive) and the GI50 (SK-OV-3) is reported as > 100 µM (inactive). For the same compound, the GI50 (EKVX) was > 100 µM (inactive), the GI50 (KM-20L2) was > 100 µM (inactive) and the GI50 (RXF 393) was > 100 µM (inactive). The GI50 (HT-29) was > 100 µM (inactive), the GI50 (HCT-15) was greater than 100 µM and the GI50 (IGROV-1) was > 100 µM (inactive). For the same compound, the GI50 (ACHN) was > 100 µM (inactive), the GI50 (U-251) was > 100 µM (inactive) and the GI50 (SN12C) was > 100 µM (inactive). For the same compound, the GI50 (NCI-H23) was > 100 µM (inactive), the GI50 (SF-295) was > 100 µM (inactive) and the GI50 (SNB-78) was > 100 µM (inactive). The GI50 (NCI-H460) was > 100 µM (inactive), the GI50 (LXFL 529) was > 100 µM (inactive) and the GI50 (OVCAR-5) was > 100 µM (inactive). The GI50 (MOLT-4) was > 100 µM (inactive), the GI50 (SF-539) was > 100 µM (inactive) and the GI50 (UACC-257) was > 100 µM (inactive). For the same compound, the GI50 (CAKI-1) was > 100 µM (inactive), the GI50 (SK-MEL-2) was > 100 µM (inactive) and the GI50 (UACC-62) was > 100 µM (inactive). For the same compound, the GI50 (COLO 205) was > 100 µM (inactive), the GI50 (HOP-18) was 40.6 µM (inactive) and the GI50 (OVCAR-4) was > 100 µM (inactive). For the same compound, the GI50 (TK-10) was > 100 µM (inactive), the GI50 (SNB-75) was > 100 µM (inactive) and the GI50 (M19-MEL) was > 100 µM (inactive). For the same compound, the GI50 (SF-268) was > 100 µM (inactive), the GI50 (OVCAR-3) was > 100 µM (inactive) and the GI50 (SW-620) was > 100 µM (inactive). For the same compound, the GI50 (CCRF-CEM) was > 100 µM (inactive), the GI50 (M14) was > 100 µM (inactive) and the GI50 (SK-MEL-28) was > 100 µM (inactive). For the same compound, the GI50 (HOP-62) was > 100 µM (inactive), the GI50 (DMS-114) was > 100 µM (inactive) and the GI50 (DMS-273) was > 100 µM (inactive). For the same compound, the GI50 (K562) was > 100 µM (inactive), the GI50 (HCC 2998) was > 100 µM (inactive) and the GI50 (OVCAR-8) was > 100 µM (inactive). The GI50 (LOX IMVI) was > 100 µM (inactive), the GI50 (KM12) was > 100 µM (inactive) and the GI50 (XF498) was > 100 µM (inactive). The GI50 (A498) was > 100 µM (inactive), the GI50 (DLD-1) was > 100 µM (inactive) and the GI50 (RPMI-8226) was > 100 µM (inactive). For the same compound, the GI50 (SNB-19) was > 100 µM (inactive), the GI50 (786-0) was > 100 µM (inactive) and the GI50 (HCT-116) was > 100 µM (inactive). For the same compound, the GI50 (Malme-3M) was > 100 µM (inactive).

`COC1=C2CC(C)CC(OC)C(O)C(C)/C=C(\C)C(OC(N)=O)C(OC)/C=C\C=C(/C)C(=O)NC(=C(/C=N/C(C)(C)C)C1=O)C2=O` (stereo unspecified) was tested, and the GI50 (SK-MEL-5) was 2.79 µM (inactive), the GI50 (HL-60) was 0.479 µM (active) and the GI50 (A549) was 2.47 µM (inactive). The GI50 (SK-OV-3) was 24.7 µM (inactive), the GI50 (EKVX) was 3.64 µM (inactive) and the GI50 (KM-20L2) was 2.28 µM (inactive). The GI50 (RXF 393) was 0.351 µM (active), the GI50 (HT-29) was 3.19 µM (inactive) and the GI50 (HCT-15) was 6.28 µM. The GI50 (IGROV-1) was 13.1 µM (inactive), the GI50 (U-251) was 1.43 µM (inactive) and the GI50 (SN12C) was 2.04 µM (inactive). For the same compound, the GI50 (NCI-H23) was 0.849 µM (active), the GI50 (SF-295) was 5.02 µM (inactive) and the GI50 (SNB-78) was 13.9 µM (inactive). The GI50 (NCI-H460) was 2.44 µM (inactive), the GI50 (OVCAR-5) was 37.3 µM (inactive) and the GI50 (NCI-H226) was 1.75 µM (inactive). For the same compound, the GI50 (MOLT-4) was 3.44 µM (inactive), the GI50 (SF-539) was 1.66 µM (inactive) and the GI50 (UACC-257) was 2.55 µM (inactive). The GI50 (CAKI-1) was 3.08 µM (inactive), the GI50 (SK-MEL-2) was 4.85 µM (inactive) and the GI50 (UACC-62) was 5.38 µM (inactive). The GI50 (COLO 205) was 1.31 µM (inactive), the GI50 (HOP-92) was 0.303 µM (active) and the GI50 (HOP-18) was 6.85 µM (inactive). For the same compound, the GI50 (OVCAR-4) was 1.71 µM (inactive), the GI50 (SNB-75) was 0.767 µM (active) and the GI50 (M19-MEL) was 4.45 µM (inactive). The GI50 (SF-268) was 6.3 µM (inactive), the GI50 (OVCAR-3) was 0.585 µM (active) and the GI50 (SW-620) was 3.73 µM (inactive). For the same compound, the GI50 (UO-31) was 8.81 µM (inactive), the GI50 (CCRF-CEM) was 0.857 µM (active) and the GI50 (NCI-H522) was 0.279 µM (active). The GI50 (SK-MEL-28) was 4.97 µM (inactive), the GI50 (HOP-62) was 5.86 µM (inactive) and the GI50 (DMS-114) was 0.466 µM (active). The GI50 (DMS-273) was 0.986 µM (active), the GI50 (K562) was 0.82 µM (active) and the GI50 (HCC 2998) was 1.68 µM (inactive). For the same compound, the GI50 (NCI/ADR-RES) was 5.7 µM (inactive), the GI50 (OVCAR-8) was 5 µM (inactive) and the GI50 (LOX IMVI) was 4.41 µM (inactive). The GI50 (KM12) was 4.62 µM (inactive), the GI50 (XF498) was 0.767 µM (active) and the GI50 (A498) was 3.57 µM (inactive). For the same compound, the GI50 (DLD-1) was 6.05 µM (inactive), the GI50 (RPMI-8226) was 0.946 µM (active) and the GI50 (SNB-19) was 4.85 µM (inactive). The GI50 (MCF7) was 2.89 µM (inactive), the GI50 (HCT-116) was 3.69 µM (inactive) and the GI50 (Malme-3M) was 1.89 µM (inactive).

With `CNS(=O)(=O)NN(C)S(=O)(=O)c1ccc(F)cc1` the GI50 (SK-MEL-5) was > 100 µM (inactive), the GI50 (HL-60) was > 100 µM (inactive) and the GI50 (A549) was > 100 µM (inactive). The GI50 (SK-OV-3) was > 100 µM (inactive), the GI50 (EKVX) was > 100 µM (inactive) and the GI50 (KM-20L2) was > 100 µM (inactive). For the same compound, the GI50 (RXF 393) was > 100 µM (inactive), the GI50 (HT-29) was > 100 µM (inactive) and the GI50 (HCT-15) was greater than 100 µM. The GI50 (IGROV-1) was > 100 µM (inactive), the GI50 (ACHN) was > 100 µM (inactive) and the GI50 (U-251) was > 100 µM (inactive). The GI50 (SN12C) was > 100 µM (inactive), the GI50 (NCI-H23) was > 100 µM (inactive) and the GI50 (SF-295) was > 100 µM (inactive). The GI50 (NCI-H460) was 40.7 µM (inactive), the GI50 (LXFL 529) was > 100 µM (inactive) and the GI50 (OVCAR-5) was > 100 µM (inactive). The GI50 (NCI-H226) was > 100 µM (inactive), the GI50 (MOLT-4) was > 100 µM (inactive) and the GI50 (SF-539) was > 100 µM (inactive). For the same compound, the GI50 (UACC-257) was > 100 µM (inactive), the GI50 (CAKI-1) was > 100 µM (inactive) and the GI50 (SK-MEL-2) was > 100 µM (inactive). The GI50 (UACC-62) was > 100 µM (inactive), the GI50 (COLO 205) was > 100 µM (inactive) and the GI50 (HOP-92) was > 100 µM (inactive). The GI50 (HOP-18) was > 100 µM (inactive), the GI50 (OVCAR-4) was > 100 µM (inactive) and the GI50 (TK-10) was > 100 µM (inactive). For the same compound, the GI50 (SNB-75) was 47 µM (inactive), the GI50 (SF-268) was > 100 µM (inactive) and the GI50 (OVCAR-3) was > 100 µM (inactive). For the same compound, the GI50 (SW-620) was > 100 µM (inactive), the GI50 (UO-31) was > 100 µM (inactive) and the GI50 (CCRF-CEM) was > 100 µM (inactive). The GI50 (M14) was > 100 µM (inactive), the GI50 (NCI-H522) was > 100 µM (inactive) and the GI50 (SK-MEL-28) was > 100 µM (inactive). For the same compound, the GI50 (HOP-62) was > 100 µM (inactive), the GI50 (DMS-114) was > 100 µM (inactive) and the GI50 (DMS-273) was > 100 µM (inactive). The GI50 (K562) was > 100 µM (inactive), the GI50 (HCC 2998) was > 100 µM (inactive) and the GI50 (OVCAR-8) was > 100 µM (inactive). The GI50 (LOX IMVI) was 90.2 µM (inactive), the GI50 (KM12) was > 100 µM (inactive) and the GI50 (XF498) was > 100 µM (inactive). The GI50 (A498) was > 100 µM (inactive), the GI50 (DLD-1) was > 100 µM (inactive) and the GI50 (RPMI-8226) was > 100 µM (inactive). The GI50 (SNB-19) was > 100 µM (inactive), the GI50 (786-0) was > 100 µM (inactive) and the GI50 (HCT-116) was > 100 µM (inactive). For the same compound, the GI50 (Malme-3M) was > 100 µM (inactive).
